Results as given in patent US6617350B2, “Inhibitors of aspartyl protease” (priority 1999, dated 2003).
Read-outs that look alike come from different tables or passages of the source.

How the values were obtained:
HIV-1 (strain IIIB) = assay: microbe, parasite or virus in culture; format: cell-based; conditions: anti-viral potency in MT-4 cells, read-out: IC50
HIV-1 protease = HIV-1 protease (Human immunodeficiency virus type 1 group M subtype B, UniProt P04585); assay: biochemical
[1] = Human immunodeficiency virus 1, IIIB, MT4, Table 12
[2] = Table 12, HIV-1 protease, read-out: Ki

SMILES | IC50 (HIV-1 (strain IIIB); [1]) [nM] | Ki (HIV-1 protease; [2]) [nM] | IC50 (HIV-1 (strain IIIB); Table 12) [nM] | Ki (HIV-1 protease) [nM]
COc1ccc(S(=O)(=O)N(C=C(C#N)C#N)C[C@@H](O)[C@H](Cc2ccccc2)NC(=O)OC(C)(C)C)cc1 [Compound 113] | 500 to 1000 | 10 to 100 | – | –
COc1ccc(S(=O)(=O)N(CCC#N)C[C@@H](O)[C@H](Cc2ccccc2)NC(=O)O[C@H]2CO[C@H]3OCC[C@H]32)cc1 [Compound 124, {(1S,2R)-3-[(4-methoxybenzenesulfonyl)-(2-cyanoethyl)-amino]-1-benzyl-2-hydroxy-propyl}-carbamic acid (3R,3aS,6aR)hexahydro-furo[2,3-b]furan-3-yl ester] | ≤ 100 | < 1 | – | –
COc1ccc(S(=O)(=O)N(CCC#N)C[C@@H](O)[C@H](Cc2ccccc2)NC(=O)OC2COCOC2)cc1 [Compound 125] | > 1000 | < 1 | – | –
COc1ccc(S(=O)(=O)N(CCCCC2(C)OCCO2)C[C@@H](O)[C@H](Cc2ccccc2)NC(=O)OC(C)(C)C)cc1 [Compound 201, tert-Butyl N-((1S,2R)-1-benzyl-2-hydroxy-3-[(4-methoxyphenyl)sulfonyl][4-(2-methyl-1,3-dioxolan-2-yl)butyl]aminopropyl)carbamate] | > 1000 | 1 to 10 | – | –
COc1ccc(S(=O)(=O)N(CCCCC2(C)OCCO2)C[C@@H](O)[C@H](Cc2ccccc2)NC(=O)OC(C)(C)C)cc1 [Compound 204, tert-Butyl N-((1S,2R)-1-benzyl-2-hydroxy-3-[(4-methoxyphenyl)sulfonyl][4-(2-methyl-1,3-dioxolan-2-yl)butyl]aminopropyl)carbamate] | – | 1 to 10 | 500 to 1000 | –
COc1ccc(S(=O)(=O)N(CCCCC(C)=O)C[C@@H](O)[C@H](Cc2ccccc2)NC(=O)O[C@H]2CCOC2)cc1 [Compound 205, (3S)-Tetrahydro-3-furanyl N-(1S,2R)-1-benzyl-2-hydroxy-3-[[(4-methoxyphenyl)sulfonyl](5-oxohexyl)amino]-propylcarbamate] | 500 to 1000 | < 1 | – | –
CCC(CCC(C)=O)CN(CC(O)[C@H](Cc1ccccc1)NC(=O)OC1CCOC1)S(=O)(=O)c1ccc(OC)cc1 (stereo partly drawn) [Compound 206, (3S)-Tetrahydro-3-furanyl N-((1S,2R)-1-benzyl-3-(2-ethyl-5-oxohexyl)[(4-methoxyphenyl)sulfonyl]amino-2-hydroxypropyl)carbamate] | ≤ 100 | < 1 | – | –
COc1ccc(S(=O)(=O)N(CC(C)CCC(C)=O)CC(O)[C@H](Cc2ccccc2)NC(=O)OC2CCOC2)cc1 (stereo partly drawn) [Compound 207, (3S)-Tetrahydro-3-furanyl N-(1S, 2R)-1-benzyl-2-hydroxy-3-[[(4-methoxyphenyl)sulfonyl](2-methyl-5-oxohexyl)amino]propylcarbamate] | ≤ 100 | < 1 | – | –
COc1ccc(S(=O)(=O)N(C[C@@H](O)[C@H](Cc2ccccc2)NC(=O)O[C@H]2CCOC2)CC(C)(C)CCC(C)=O)cc1 [Compound 208, (3S)-Tetrahydro-3-furanyl N-((1S,2R)-1-benzyl-3-(2-,2-dimethyl-5-oxohexyl)[(4-methoxyphenyl)sulfonyl]amino-2-hydroxypropyl)carbamate] | 100 to 500 | < 1 | – | –
COc1ccc(S(=O)(=O)N(C[C@@H](O)[C@H](Cc2ccccc2)NC(=O)O[C@H]2CCOC2)CC(C)(C)CCCC(C)=O)cc1 [Compound 209] | 100 to 500 | < 1 | – | –
COC(=O)NCCCC(C)(C)CN(CC(O)C(Cc1ccccc1)NC(=O)OC1COC2OCCC12)S(=O)(=O)c1ccc(OC)cc1 [Compound 213, (3R,3aS,6aR)hexahydrofuro[2,3-b]furan-3-yl N-((1S,2R)-1-benzyl-2-hydroxy-3-5-[(methoxycarbonyl)amino]-2,2-dimethylpentyl[(4-methoxyphenyl)sulfonyl]aminopropyl)carbamate and (3S,3aR,6aS)hexahydrofuro[2,3-b]furan-3-yl N-((1S,2R)-1-benzyl-2-hydroxy-3-5-[(methoxycarbonyl)amino]-2,2-dimethylpentyl[(4-methoxyphenyl)sulfonyl]aminopropyl)carbamate] | ≤ 100 | < 1 | – | –
COc1ccc(S(=O)(=O)N(CC(O)C(Cc2ccccc2)NC(=O)OC2COC3OCCC23)CC(C)(C)CCCNS(C)(=O)=O)cc1 [Compound 215, (3R,3aS,6aR)hexahydrofuro[2,3-b]furan-3-yl N-((1S,2R)-1-benzyl-3-2,2-dimethyl-5-[(methylsulfonyl)amino]pentyl[(4-methoxyphenyl)sulfonyl]amino-2-hydroxypropyl)carbamate and (3S,3aR, 6aS)hexahydrofuro[2,3-b]furan-3-yl N-((1s,2R)-1-benzyl-3-2,2-dimethyl-5-[(methylsulfonyl)amino]pentyl[(4-methoxyphenyl)sulfonyl]amino-2-hydroxypropyl)carbamate] | ≤ 100 | < 1 | – | –
COC(=O)NCCC(C)(C)CN(CC(O)C(Cc1ccccc1)NC(=O)OC1COC2OCCC12)S(=O)(=O)c1ccc(OC)cc1 [Compound 218, (3R,3aS,6aR)hexahydrofuro[2,3-b]furan-3-yl N-((1S,2R)-1-benzyl-2-hydroxy-3-4-[(methoxycarbonyl)amino]-2,2-dimethylbutyl[(4-methoxyphenyl)sulfonyl]aminopropyl)carbamate and (3S,3aR,6aS)hexahydrofuro[2,3-b]furan-3-yl N-((1S,2R)-1-benzyl-2-hydroxy-3-4-[(methoxycarbonyl)amino]-2,2-dimethylbutyl[(4-methoxyphenyl)sulfonyl]aminopropyl)carbamate] | ≤ 100 | < 1 | – | –
COc1ccc(S(=O)(=O)N(CC(O)C(Cc2ccccc2)NC(=O)OC2COC3OCCC23)CC(C)(C)CCNS(C)(=O)=O)cc1 [Compound 220, (3R,3aS,6aR)hexahydrofuro[2,3-b]furan-3-yl N-((1S,2R)-1-benzyl-3-2,2-dimethyl-4-[(methylsulfonyl)amino]butyl[(4-methoxyphenyl)sulfonyl]amino-2-hydroxypropyl)carbamate and (3S,3aR,6aS)hexahydrofuro[2,3-b]furan-3-yl N-((1S,2R)-1-benzyl-3-2,2-dimethyl-4-[(methylsulfonyl)amino]butyl[(4-methoxyphenyl)sulfonyl]amino-2-hydroxypropyl)carbamate] | ≤ 100 | – | – | < 1
CNC(=O)OCCC(C)(C)CN(CC(O)[C@H](Cc1ccccc1)NC(=O)OC1COC2OCCC12)S(=O)(=O)c1ccc(OC)cc1 (stereo partly drawn) [Compound 221, (3R,3aS,6aR)-Hexahydrofuro[2,3-b]furan-3-yl N-((1S,2R)-1-benzyl-3-(2,2-dimethyl-4-N′-methylcarbamoyloxybutyl)[(4-methoxyphenyl)sulfonyl]amino-2-hydroxypropyl)carbamate] | ≤ 100 | < 1 | – | –
COC(=N[N+](=O)[O-])NCCC(C)(C)CN(CC(O)C(Cc1ccccc1)NC(=O)OC1COC2OCCC12)S(=O)(=O)c1ccc(OC)cc1 (stereo not drawn) [Compound 223] | ≤ 100 | < 1 | – | –
CNC(=O)CNC(=O)NCCCC(C)(C)CN(CC(O)C(Cc1ccccc1)NC(=O)OC1COC2OCCC12)S(=O)(=O)c1ccc(OC)cc1 [Compound 225, (3R,3aS,6aR)hexahydrofuro[2,3-b]furan-3-yl N-(1S,2R)-1-benzyl-2-hydroxy-4-[(4-methoxyphenyl)sulfonyl]-6,6-dimethyl-11,14-dioxo-4,10,12,15-tetraazahexadec-1-ylcarbamate and (3S,3aR,6aS)hexahydrofuro[2,3-b]furan-3-yl N-(1S,2R)-1-benzyl-2-hydroxy-4-[(4-methoxyphenyl)sulfonyl]-6,6-dimethyl-11,14-dioxo-4,10,12,15-tetraazahexadec-1-ylcarbamate] | > 1000 | < 1 | – | –
CCOC(=O)NCCC(C)(C)CN(CC(O)C(Cc1ccccc1)NC(=O)OC1COC2OCCC12)S(=O)(=O)c1ccc(OC)cc1 [Compound 226, (3R,3aS,6aR)hexahydrofuro[2,3-b]furan-3-yl N-((1S,2R)-1-benzyl-3-4-[(ethoxycarbonyl)amino]-2,2-dimethylbutyl[(4-methoxyphenyl)sulfonyl]amino-2-hydroxypropyl)carbamate and (3S,3aR,6aS)hexahydrofuro[2,3-b]furan-3-yl N-((1S,2R)-1-benzyl-3-4-[(ethoxycarbonyl)amino)-2,2-dimethylbutyl[(4-methoxyphenyl)sulfonyl]amino-2-hydroxypropyl)carbamate] | ≤ 100 | < 1 | – | –
COc1ccc(S(=O)(=O)N(CC(O)[C@H](Cc2ccccc2)NC(=O)OC2COC3OCCC23)CC(C)(C)CCC(C)=NO)cc1 (stereo partly drawn) [Compound 227, (3R,3aS,6aR)-Hexahydrofuro[2,3-b]furan-3-yl N-((1S,2R)-1-benzyl-3-(2,2-dimethyl-5-hydroxyiminohexyl)[(4-methoxyphenyl)sulfonyl]amino-2-hydroxypropyl)carbamate] | ≤ 100 | < 1 | – | –
CNC(=O)CNC(=O)NCCC(C)(C)CN(CC(O)C(Cc1ccccc1)NC(=O)OC1COC2OCCC12)S(=O)(=O)c1ccc(OC)cc1 [Compound 228, (3R,3aS,6aR)hexahydrofuro[2,3-b]furan-3-yl N-(1S,2R)-1-benzyl-2-hydroxy-4-[(4-methoxyphenyl)sulfonyl]-6,6-dimethyl-10,13-dioxo-4,9,11,14-tetraazapentadec-1-ylcarbamate and (3S,3aR,6aS)hexahydrofuro[2,3-b]furan-3-yl N-(1S,2R)-1-benzyl-2-hydroxy-4-[(4-methoxyphenyl)sulfonyl]-6,6-dimethyl-10,13-dioxo-4,9,11,14-tetraazapentadec-1-ylcarbamate] | 100 to 500 | < 1 | – | –
CCOC(=O)NCCCC(C)(C)CN(CC(O)C(Cc1ccccc1)NC(=O)OC1COC2OCCC12)S(=O)(=O)c1ccc(OC)cc1 [Compound 230, (3R,3aS,6aR)hexahydrofuro[2,3-b]furan-3-yl N-((1S,2R)-1-benzyl-3-5-[(ethoxycarbonyl)amino]-2,2-dimethylpentyl[(4-methoxyphenyl)sulfonyl]amino-2-hydroxypropyl)carbamate and (3S,3aR,6aS)hexahydrofuro[2,3-b]furan-3-yl N-((1S,2R)-1-benzyl-3-5-[(ethoxycarbonyl)amino]-2,2-dimethylpentyl[(4-methoxyphenyl)sulfonyl]amino-2-hydroxypropyl)carbamate] | ≤ 100 | < 1 | – | –
